Experimental data taken from patent US12168643B2, “Compounds for the treatment of neuromuscular disorders” (NMD PHARMA A/S, priority 2019, dated 2024).
Marks after values point to notes of the source that are not given here.

Experiments:
[1] = test system: isolated rat soleus muscles; assay: Recovery of nerve-stimulated contractile force in isolated rat soleus nerve-muscle preparations exposed to tubocurarine; format: cell-based; conditions: 50 μM compound, 40 mins exposure, after 90 mins 115 nM tubocurarine
Procedure: FIG. 2. […] Force traces from a representative muscle stimulated to contract in 1) control condition before addition of neuromuscular blocking agent, 2) the force response to stimulation after 90 minutes incubation with Tubocurarine. […] The traces presented in panel A (1, 2, 3), correspond to the dotted lines in panel B, respectively.
Recovery of force is quantified as the percentage of the force prior to tubocurarine that is recovered by the compound.
The current disclosure relates to compounds that inhibit CIC-1 ion channels and increase muscle excitability and thereby improve muscle function in clinical conditions where muscle activation is failing. Such conditions result in loss of contractile function of skeletal muscle, weakness and excessive fatigue. In this series of experiments the compounds were tested for their ability to restore contractile function of isolated rat muscle when the neuromuscular transmission had been compromised akin to neuromuscular disorders.
Experimentally, soleus muscles from 4-5 week old rats were isolated with the motor nerve remaining attached. The nerve-muscle preparations were mounted in experimental setups that enabled electrical stimulation of the motor nerve. Stimulation of the motor nerve led to activation of the muscle fibres and ensuing force production that was recorded.
After mounting the nerve-muscle preparation in the experimental setup, the contractile function of the muscle was initially assessed under the control conditions (FIG. 2A). […] The experimental condition mimics the failing neuromuscular transmission in a range of neuromuscular disorders. After addition of tubocurarine the contractile force declined over the next 90 mins to 10-50% of the control force. 50 μM of the test compound was then added and the contractile force recovered despite the continued presence of tubocurarine. To quantify the ability of the compound to restore force the percentage of the initial force that was restored was determined after 40 mins of compound exposure (FIG. 2B) and the point increase is reported in Table 3.

CIC-1 ion channel = molecular target: T1, CIC-1 ion channel (Rattus norvegicus, UniProt P35524); assay: Electrophysiological measurement (three micro-electrode Gm) of compound inhibition of CIC-1 in rat soleus muscle fibres; format: cell-based; conditions: whole rat soleus muscle, approx. 30° C., four increasing concentrations; mean ± spread, n = experiments; read-out: EC50 (inhibition of CIC-1 ion channel, reduction of Gm)
T1 construct: from tissue; host or cells: whole soleus muscle of 12-14 week old Wistar rats
T1 sequence (P35524 1-994): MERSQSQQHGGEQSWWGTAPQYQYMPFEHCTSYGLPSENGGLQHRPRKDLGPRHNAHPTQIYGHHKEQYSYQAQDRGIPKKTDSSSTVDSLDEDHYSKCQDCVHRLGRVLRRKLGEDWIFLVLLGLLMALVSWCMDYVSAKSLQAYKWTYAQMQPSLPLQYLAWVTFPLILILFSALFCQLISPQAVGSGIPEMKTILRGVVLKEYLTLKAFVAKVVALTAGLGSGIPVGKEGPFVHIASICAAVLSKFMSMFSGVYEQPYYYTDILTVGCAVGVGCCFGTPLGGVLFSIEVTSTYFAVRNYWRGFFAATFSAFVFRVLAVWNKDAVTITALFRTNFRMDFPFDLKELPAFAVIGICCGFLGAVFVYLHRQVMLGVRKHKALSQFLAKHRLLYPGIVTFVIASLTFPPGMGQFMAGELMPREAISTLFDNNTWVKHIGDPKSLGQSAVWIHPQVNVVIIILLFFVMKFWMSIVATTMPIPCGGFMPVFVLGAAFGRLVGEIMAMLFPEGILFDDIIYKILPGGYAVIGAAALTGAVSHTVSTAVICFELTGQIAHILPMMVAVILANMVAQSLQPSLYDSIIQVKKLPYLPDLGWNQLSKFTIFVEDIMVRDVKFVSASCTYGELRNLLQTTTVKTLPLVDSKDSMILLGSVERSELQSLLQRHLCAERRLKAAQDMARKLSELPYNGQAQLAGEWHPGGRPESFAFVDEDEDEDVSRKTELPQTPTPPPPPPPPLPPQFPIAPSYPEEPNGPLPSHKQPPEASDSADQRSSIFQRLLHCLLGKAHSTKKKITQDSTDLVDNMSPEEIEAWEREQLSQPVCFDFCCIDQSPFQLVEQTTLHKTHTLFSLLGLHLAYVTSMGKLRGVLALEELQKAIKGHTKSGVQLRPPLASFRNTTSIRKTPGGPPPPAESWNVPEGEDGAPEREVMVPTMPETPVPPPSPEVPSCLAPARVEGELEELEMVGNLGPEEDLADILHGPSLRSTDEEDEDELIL

hindlimb muscle force = assay: In situ isometric hindlimb force in anaesthetised rats with neuromuscular transmission partially inhibited by Cisatracurium; format: in vivo; conditions: 47.2 mg/kg i.v., 80 Hz stimulation, Cisatracurium infusion, female Lewis rats
Procedure: Isometric hindlimb force was measured in 12-week old female Lewis rats in the presence and absence of compound.
Rats were placed under anesthesia with isoflurane (2-4%), intubated and subsequently connected to a micro ventilator (Microvent 1, Hallowell EMC, US). Two stimulation electrodes were inserted through the skin to stimulate the sciatic nerve. A small incision was made proximal to the ankle, to expose the Achilles tendon, which was tied by cotton string, and connected to a force transducer (Fort250, World Precision Instruments) with adjustable position (Vernier control). The Achilles tendon was then cut distal to the attached cotton string. […]
Muscle contractile properties were assessed by applying an electrical current (under supramaximal voltage conditions) to the nerve and recording the force generated by the muscle. The muscle was stretched until maximal force was obtained, when assessed by 2 Hz stimulation. Isometric force was measured every 30 seconds at 12 Hz (Twitch), 10 pulses, and at every 5 minutes at 80 Hz (Tetanic) for 1 second (80 pulses). […] The effect of test article was assessed on its ability to increase force generated from the stimulation pattern applied. The effect was assessed in the ability to increase force per se (tetanic, 80 Hz, stimulation), and the ratio between individual twitch peaks (12 Hz stimulation). […]

## COC[C@@H](Oc1ccc(Br)cc1C1CC1)C(=O)O (single isomer, unassigned) [(2R)-A-1]
[1]
  Point increase (%) of initial force that was restored: 0.2%

## COC[C@@H](Oc1ccc(Br)cc1C1CCC1)C(=O)[O-].[Na+] [(2R)-A-6, Sodium (R)-2-(4-bromo-2-cyclobutylphenoxy)-3-methoxypropanoate]
[1]
  Point increase (%) of initial force that was restored: −4.1 ± 1.4%

## COC[C@H](Oc1ccc(Br)cc1C1CC1)C(=O)O [Compound A-1, (2S)-2-(4-Bromo-2-cyclopropylphenoxy)-3-methoxypropanoic acid]
[1]
  Point increase (%) of initial force that was restored: 36.3* %
CIC-1 ion channel
  EC50: 3.7 ± 0.2 µM
Hindlimb muscle force
  increase in tetanic force: 85%

## COC[C@H](Oc1cc(F)c(Br)cc1C1CC1)C(=O)O [Compound A-2, (2S)-2-(4-bromo-2-cyclopropyl-5-fluorophenoxy)-3-methoxypropanoic acid]
[1]
  Point increase (%) of initial force that was restored: 22.3 ± 3.8%

## COC[C@H](Oc1ccc(Br)cc1C1CCC1)C(=O)O [Compound A-6, (2S)-2-(4-bromo-2-cyclobutylphenoxy)-3-methoxypropanoic acid]
[1]
  Point increase (%) of initial force that was restored: 35.6 ± 8.3%
CIC-1 ion channel
  EC50: 3.2 ± 2.1 µM
